# Measurements as given in patent US20240050582A1, “CONJUGATES INCLUDING MULTIPLE SACCHARIDIC CHAINS ON A LINEAR PROTEIN AND USES IN MAMMALS FEED” (UNIVERSITEIT GENT, priority 2021, published 2024).
# Where two headings read alike, the source gives them in different places. Marks after values point to notes of the source that are not given here.
# What was measured:
# F18+ E. coli = experiment: Blocking assay with fluorescein conjugated A6-1 monomers; format: binding, Escherichia coli; conditions: pre-incubation 1 h; actual A6-1 12 μg/ml (CMCL, CMCM), 120 μg/ml (polylysine); monomeric A6-1 1 mg/ml
# Protocol: A blocking assay was developed to understand inhibition. In this assay, F18+E. coli were first incubated for one hour at room temperature with either the carriers or A6-1 conjugates, while gently shaking. Concentrations used were chosen so that the actual A6-1 concentration was 12 μg/ml for A6-1 conjugated carriers CMCM and CMCL (and the similar concentration of non-conjugated carriers) or 120 μg/ml for the A6-1 conjugated carrier polylysine (A6-1-PL-14). […] Subsequently, fluorescein conjugated A6-1 monomers (A6-F) were added (1 mg/ml) for one hour at room temperature. The fluorescing oligosaccharide was labeled at the reducing end of the molecule with fluorescein (also named 6A1-FITC). Next free A6-1-fluorescein was washed away with PBS followed by centrifugation at 2000 g for 5 min and resuspensions of the pellet with PBS. This was repeated twice.
# If carriers without A6-1 bind to the bacteria, they will block the binding of A6-F and no fluorescence-bound bacteria can be detected by fluorescence microscopy. If there is no binding of the carrier to the bacteria in the first step of the test, fluorescing bacteria will be seen. […]
# As aforementioned, high non-AG based inhibition of most carriers was observed. […] Subsequently, fluorescence conjugated AG-1 monomers (AG-1-F) were added and binding of the fluorescing AG-1 to the bacteria was determined using a fluorescence microscope.
# [1] = system: F18+ E. coli (strain 107/86); conditions: for Average % inhibition: free A6-1 10 mg/ml (positive control); for Conjugate inhibition (M) / M − C (measure of the specific blockage of F18 fimbriae by A6) / Optimal inhibitory dose: A6 supplied via the conjugate / Optimal inhibitory dose: Carrier supplied via the conjugate: Table 9; for Conjugate inhibition (M): A6-1 conjugate of the carrier, at its optimal inhibitory dose; for M − C (measure of the specific blockage of F18 fimbriae by A6): difference conjugate inhibition minus carrier inhibition; for Optimal inhibitory dose: A6 supplied via the conjugate / Optimal inhibitory dose: Carrier supplied via the conjugate: in vitro
# F18 E. coli [2] = format: in vivo, pig; conditions: compared with positive control; P<0.05
# F18 E. coli [3] = experiment: Part E: intestinal morphology; conditions: linear
# [4] = system: F18ac bacteria 2134P (STa+ STb+); experiment: In vivo small intestinal segment perfusion model (SISP); set-up: species or system pig
# F18 E. coli [5] = experiment: Part E: bacterial translocation in lymph nodes and spleen; conditions: AGP
# β-hemolytic coliforms = format: in vivo, pig; conditions: AGP (50 mg/kg carbadox)
# [6] = d 5 PI, compared with the control, P<0.05
compound,measurement,setting,value
"CC(=O)N[C@H]1[C@@H](O[C@H]2[C@@H](O)[C@@H](CO)O[C@@H](O[C@H]3[C@H](O)[C@@H](CO)O[C@@H](O[C@H]4[C@@H](O)[C@@H](CO)O[C@@H](O[C@H]5[C@H](O)[C@@H](O)C(O)O[C@@H]5CO)[C@@H]4O)[C@@H]3NC(C)=O)[C@@H]2O[C@@H]2O[C@@H](C)[C@@H](O)[C@@H](O)[C@@H]2O)O[C@H](CO)[C@H](O)[C@@H]1O (stereo partly drawn) [A6-1, GalNAcα1-3(Fucα1-2)Galβ1-3GlcNAcβ1-3Galβ1-4Glc, reference compound]",fluorescence of bacteria after A6-1-fluorescein (blocking of A6-F binding),F18+ E. coli,completely abolished fluorescence
same,Average % inhibition,[1]; Table 8-A,71.3%
same,Average % inhibition,[1]; Table 8-B CMCL type 1,69.5%
same,Average % inhibition,[1]; Table 8-B CMCL type 2,57.05%
same,Average % inhibition,[1]; Table 8-C CMCM type 1,63.6%
same,Average % inhibition,[1]; Table 8-C CMCM type 2,61.26%
Alginate [reference compound],Conjugate inhibition (M),[1],41%
same,M − C (measure of the specific blockage of F18 fimbriae by A6),[1],−15%
same,Optimal inhibitory dose: A6 supplied via the conjugate,[1],0.6 µg/mL
same,Optimal inhibitory dose: Carrier supplied via the conjugate,[1],0.081 mg/mL
CNCCCCC(CNCCCCC(N)C(=O)NCCCCC(N)C(C)=O)NCC(O)C(O)C(O[C@@H]1OC(CO)[C@H](O)C(O[C@@H]2OC(CO)[C@@H](O)C(O[C@@H]3OC(CO)[C@H](O)C(O[C@H]4OC(CO)[C@H](O)C(O)C4NC(C)=O)C3O[C@@H]3OC(C)[C@@H](O)C(O)C3O)C2NC(C)=O)C1O)C(O)CO (stereo partly drawn) [Coligo A6PL],feed efficiency from d 0 to 5 PI,F18 E. coli [2],enhanced
same,ratio of villi height to crypt depth in jejunum,F18 E. coli [3]; [6],enhanced
same,"villi height, ratio of villi height to crypt depth, and villi area in ileum",F18 E. coli [3]; [6],increased
same,"villi height, ratio of villi height to crypt depth, villi width, and villi area in duodenum",F18 E. coli [3]; [6],dose-dependently increased
same,ratio of villi height to crypt depth in jejunum and ileal villi height,"F18 E. coli [3]; d 11 PI, P<0.10",tended to increase
same,net absorption of perfusion fluid,"[4]; 2 μg/ml actual A6-1 (A6-1-PL-14), segment number 4",+0.03 g/cm^2
same,net absorption of perfusion fluid,"[4]; 8 μg/ml actual A6-1 (A6-1-PL-14), segment number 5",+0.21 g/cm^2
same,net absorption of perfusion fluid,[4]; 32 μg/ml actual A6-1 (number 6) or the same concentration of polylysine (number 8),0 g/cm^2
Pectin [reference compound],Conjugate inhibition (M),[1],64%
same,M − C (measure of the specific blockage of F18 fimbriae by A6),[1],−5%
same,Optimal inhibitory dose: A6 supplied via the conjugate,[1],1.2 µg/mL
same,Optimal inhibitory dose: Carrier supplied via the conjugate,[1],0.25 mg/mL
"COC(=O)N/N=C/c1c[n+]([O-])c2ccccc2[n+]1[O-] [AGP, carbadox]","Bacterial translocation, Lymph node",F18 E. coli [5]; d 5 PI,147^ab cfu/g
same,"Bacterial translocation, Spleen",F18 E. coli [5]; d 5 PI,47 cfu/g
same,"Bacterial translocation, Lymph node",F18 E. coli [5]; d 11 PI,279^ab cfu/g
same,"Bacterial translocation, Spleen",F18 E. coli [5]; d 11 PI,56^b cfu/g
same,percentage of β-hemolytic coliform,β-hemolytic coliforms; d 2 PI,31.56^b %
same,percentage of β-hemolytic coliform,β-hemolytic coliforms; d 5 PI,8.79^b %
same,percentage of β-hemolytic coliform,β-hemolytic coliforms; d 8 PI,2.77^b %
same,percentage of β-hemolytic coliform,β-hemolytic coliforms; d 11 PI,2.10%
